From ChEMBL document CHEMBL2434967, “Synthesis, characterization, antiparasitic and cytotoxic evaluation of thioureas conjugated to polyamine scaffolds” (Eur J Med Chem, 2013)

How the values were obtained:
[1] = Cytotoxicity against human WHCO1 cells after 48 hrs by MTT assay; type: functional, cell-based; conditions: WHCO1, 48 h
[2] = Inhibition of beta-hematin formation after overnight incubation by NP-40 detergent-mediated spectroscopic analysis; type: functional
Plasmodium falciparum [3] = assay: Resistance index, ratio of IC50 for chloroquine-resistant Plasmodium falciparum Dd2 to IC50 for chloroquine-sensitive Plasmodium falciparum NF54; type: functional
Plasmodium falciparum [4] = assay: Antiplasmodial activity against chloroquine-sensitive erythrocyte stages of Plasmodium falciparum NF54 by parasite lactate dehydrogenase assay; type: functional, organism-based
Trichomonas vaginalis = assay: Antimicrobial activity against Trichomonas vaginalis G3 assessed as growth inhibition at 10 uM after 24 hrs by hemocytometry; type: functional; conditions: G3, 24 h, read-out: GI
Plasmodium falciparum [5] = assay: Antiplasmodial activity against chloroquine-resistant erythrocyte stages of Plasmodium falciparum Dd2 by parasite lactate dehydrogenase assay; type: functional, organism-based

S=C(NCCCNC(=S)NCCCNc1ccnc2cc(Cl)ccc12)NCCCNc1ccnc2cc(Cl)ccc12
IC50 [1]: 38400 nM | IC50 [2]: 6520 nM | Ratio IC50 (Plasmodium falciparum [3]): 0.7 | IC50 (Plasmodium falciparum [4]): 340 nM | inhibition of growth at 10 µM (Trichomonas vaginalis): 55.9% | IC50 (Plasmodium falciparum [5]): 230 nM

CCCNC(=S)NCCCNc1ccnc2cc(Cl)ccc12
IC50 [1]: 43800 nM | IC50 [2]: 58200 nM | Ratio IC50 (Plasmodium falciparum [3]): 1.6 | IC50 (Plasmodium falciparum [4]): 160 nM | inhibition of growth at 10 µM (Trichomonas vaginalis): 34.9% | IC50 (Plasmodium falciparum [5]): 260 nM

S=C(NCCCNc1ccnc2cc(Cl)ccc12)NCCN(CCNC(=S)NCCCNc1ccnc2cc(Cl)ccc12)CCNC(=S)NCCCNc1ccnc2cc(Cl)ccc12
IC50 [1]: 6210 nM | IC50 [2]: 4480 nM | Ratio IC50 (Plasmodium falciparum [3]): 5.8 | IC50 (Plasmodium falciparum [4]): 90 nM | inhibition of growth at 10 µM (Trichomonas vaginalis): 51.4% | IC50 (Plasmodium falciparum [5]): 520 nM

Cc1ncc([N+](=O)[O-])n1CCO [METRONIDAZOLE]
inhibition of growth at 10 µM (Trichomonas vaginalis): 100%

S=C(NCCCNc1ccnc2cc(Cl)ccc12)NCCCN(CCCCN(CCCNC(=S)NCCCNc1ccnc2cc(Cl)ccc12)CCCNC(=S)NCCCNc1ccnc2cc(Cl)ccc12)CCCNC(=S)NCCCNc1ccnc2cc(Cl)ccc12
IC50 [1]: 990 nM | IC50 [2]: < 4500 nM | Ratio IC50 (Plasmodium falciparum [3]): 2.5 | IC50 (Plasmodium falciparum [4]): 200 nM | inhibition of growth at 10 µM (Trichomonas vaginalis): 58.7% | IC50 (Plasmodium falciparum [5]): 510 nM

CCN(CC)CCCC(C)Nc1ccnc2cc(Cl)ccc12 (stereo unspecified) [CHLOROQUINE]
IC50 [2]: 73800 nM
